# Experimental data: US8735396B2, “Benzofuranyl derivatives” (Pfizer Inc., priority 2009, dated 2014)
# Molecular target: T1, Full-length glucokinase (beta cell isoform) (Homo sapiens, UniProt P35557)
# T1 construct: Full-length glucokinase (beta cell isoform) was His-tagged at N-terminus; His tag (N); made in house; host or cells: E. coli BL21(DE3) carrying the pBCGK vector
# T1 sequence (P35557 1-465): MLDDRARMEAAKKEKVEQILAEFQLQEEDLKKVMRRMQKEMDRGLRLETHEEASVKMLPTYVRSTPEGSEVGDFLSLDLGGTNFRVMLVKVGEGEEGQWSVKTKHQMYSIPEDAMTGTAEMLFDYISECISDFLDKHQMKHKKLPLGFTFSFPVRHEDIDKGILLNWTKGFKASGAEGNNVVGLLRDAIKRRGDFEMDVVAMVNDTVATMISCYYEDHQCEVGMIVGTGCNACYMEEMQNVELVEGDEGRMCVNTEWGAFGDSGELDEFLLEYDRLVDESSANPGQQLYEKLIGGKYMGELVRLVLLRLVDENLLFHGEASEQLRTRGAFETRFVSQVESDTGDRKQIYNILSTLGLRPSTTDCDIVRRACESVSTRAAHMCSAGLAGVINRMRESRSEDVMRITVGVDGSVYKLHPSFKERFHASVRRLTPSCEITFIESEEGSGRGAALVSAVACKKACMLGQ
# Assay: In vitro glucokinase activation assay (PK/LDH coupled, NADH depletion at 340 nm)
# Format: biochemical
# Details: 5 mM glucose, 2.5 mM ATP; for EC50: pH 7.1, room temperature; for Emax: pH 7.1, (Va/Vo−1)×100 fitted, read-out: Maximum Activation (%)
# Procedure: Full-length glucokinase (beta cell isoform) was His-tagged at N-terminus and purified by a Ni column followed by size exclusion chromatography. A 320 mL column was packed in house using Superdex75 (Amersham Pharmacia, Carlsbad, Calif.) preparation grade resin. Glucose was obtained from Calbiochem (San Diego, Calif.) and other reagents were purchased from Sigma-Aldrich (St. Louis, Mo.).
# All assays were performed in a Corning 384-well plate using Spectramax PLUS spectrophotometer (Molecular Devices, Sunnyvale, Calif.) at room temperature. The final assay volume was 40 μL. The buffer conditions used in this assay were as follows: 50 mM HEPES, 5 mM glucose, 2.5 mM ATP, 3.5 mM MgCl2, 0.7 mM NADH, 2 mM dithiothreitol, 1 unit/mL pyruvate kinase/lactate dehydrogenase (PK/LDH), 0.2 mM phosphoenolpyruvate, and 25 mM KCl. The buffer pH was 7.1. The test compound in dimethylsulfoxide solution was added to the buffer and mixed by a plate shaker for 7.5 minutes.
# Glucokinase was added to the buffer mixture to initiate the reaction in the presence and absence of compound. The reaction was monitored by absorbance at 340 nm due to the depletion of NADH. The initial reaction velocity was measured by the slope of a linear time course of 0-300 seconds. The percentage of maximum activation was calculated by the following equation: % Maximum Activation=(Va/Vo−1)×100; wherein each of Va and Vo is defined as the initial reaction velocity in the presence and absence of the tested compound, respectively.
# The glucokinase activities were measured as a function of compound concentrations.
EC50 [µM],Emax [%],Compound
0.462,69.5,"COc1cnc(NC(=O)c2cc(Oc3cnc(C(=O)N(C)C)nc3)c3cc(C)oc3c2)cn1 [Example 3, 5-(6-((5-methoxypyrazin-2-yl)carbamoyl)-2-methylbenzofuran-4-yloxy)-N,N-dimethylpyrimidine-2-carboxamide]"
0.629,63.9,"Cc1cc2c(Oc3cnc(C(=O)N(C)C)nc3)cc(C(=O)Nc3ccn(C)n3)cc2o1 [Example 4, N,N-dimethyl-5-(2-methyl-6-((1-methyl-1H-pyrazol-3-yl)-carbamoyl)benzofuran-4-yloxy)pyrimidine-2-carboxamide]"
0.546,57.6,"CCN(C)C(=O)c1ncc(Oc2cc(C(=O)Nc3cnc(C)cn3)cc3oc(C)cc23)cn1 [Example 5, N-ethyl-N-methyl-5-(2-methyl-6-((5-methylpyrazin-2-yl)carbamoyl)benzofuran-4-yloxy)pyrimidine-2-carboxamide]"
0.382,54.1,"CCN(C)C(=O)c1ncc(Oc2cc(C(=O)Nc3ccn(C)n3)cc3oc(C)cc23)cn1 [Example 6, N-ethyl-N-methyl-5-(2-methyl-6-((1-methyl-1H-pyrazol-3-yl)carbamoyl)benzofuran-4-yloxy)pyrimidine-2-carboxamide]"
0.474,63.4,"CCN(C)C(=O)c1cnc(Oc2cc(C(=O)Nc3cnc(C)cn3)cc3oc(C)cc23)cn1 [Example 7, N-ethyl-N-methyl-5-(2-methyl-6-((5-methylpyrazin-2-yl)carbamoyl)-benzofuran-4-yloxy)pyrazine-2-carboxamide]"
